The target in one assay is T1, Syk (Homo sapiens, UniProt P43405).
T1 construct: FLAG tag (8 amino acid residues) (C); made in house; host or cells: Sf-9 insect cells (baculovirus, pFASTBAC HT)
The experiment in a line: Syk Tyrosine Kinase Inhibition Test (SPA system). It counts as biochemical. An excerpt: 1. Syk Tyrosine Kinase Inhibition Test
1) Preparation of Syk Protein
Human Syk gene, in the form where a gene of FLAG tag consisting of 8 amino acid residues was linked to the 3′-end, was cloned using RT-PCR method from total RNA prepared from Jurkat cells. The amplified cDNA was incorporated into a vector, pFASTBAC HT, contained in Baculovirus Expression System (GIBCO BRL Inc.). The pFASTBAC HT is designed in such a manner that a His tag consisting of 6 histidine residues can be fused to the 5′-end of Syk. This plasmid DNA was introduced into competent cells, DH10BAC, contained in the Baculovirus Expression System to prepare DNA of recombinant virus. Thereafter, the recombinant virus (culture supernatant) was obtained by transfection of the DNA of recombinant virus into Sf-9 cells (ATCC). […]
SPA (Scintillation Proximity Assay) is a system developed by Amersham making use of a phenomenon in which scintillation occurs when a molecule having a radioactivity is in the proximity of (linked to) the surface of plastic beads containing a scintillant included therein. […]
The plate was sealed, stirred, allowed to stand at room temperature for 15 minutes and then centrifuged at 1,500 rpm for 3 minutes to precipitate the SPA beads. Radioactivity of each well was measured using TOP COUNT (PACKARD), and the tyrosine phosphorylation activity by Syk was calculated.

A further assay relates to release of serotonin. The experiment in a line: Serotonin Release Test. The class given is cell-based. Conditions: read-out: inhibitory activity as IC50 value against the release of serotonin. How it is done: 2. Serotonin Release Test
This was carried out in accordance with the method reported by Collado-Escobar et al. (Collado-Escobar, D et al. J. Immunol., 144: 3449-3457 (1990)).

Another assay concerns PCA reaction. The assay can be described thus: Mouse Passive Cutaneous Anaphylaxis (PCA) Test. The class given is in vivo. Conditions: Male ICR (CD-1) mice; subcutaneously 30 minutes or orally 2 hours before antigen challenge. How it is done:
3. Mouse Passive Cutaneous Anaphylaxis (PCA) Test […] After 24 hours of the sensitization, 200 μl of 0.5% Evans blue solution containing 50 μg of DNP-conjugated bovine serum albumin was intravenously administered, and, after 30 minutes, each mouse was sacrificed through exsanguination to isolate both ears. […] The dye in the tissues was extracted with formaride and colorimetrically determined at 620 nm. A value obtained by subtracting the dye content of the left ear from the dye content of the right ear was used as the amount of dye leaked into the tissues by the PCA reaction. The PCA inhibition ratio by the test compound was calculated based on the following equation. In the formula, C: amount of the dye leaked into the tissue at the time of the administration of the vehicle alone, and x: amount of the dye leaked into the tissue at the time of the administration of the test compound. Inhibition ratio (%)={C-X}×100/C

Results on seven compounds are retold here after patent US6797706B1, “Heterocyclecarboxamide derivative” (Yamanouchi Pharmaceutical Co., Ltd., priority 1999, dated 2004).

Each structure is given as a SMILES string. Where only a bound is given, the exact number is not on record here.

For `CN(C)C(=O)c1cnc(NCCN)nc1Nc1cccc(C(F)(F)F)c1` [2-(2-aminoethylamino)-N,N-dimethyl-4-(3-trifluoromethylanilino)pyrimidine-5-carboxamide], the “inhibitory activity against Syk at 1 μM” value against Syk is listed as “did not exhibit any inhibitory activity”.

`COc1cc(Nc2nc(N[C@@H]3CCCC[C@@H]3N)cnc2C(N)=O)cc(OC)c1` (relative stereo) [Example 10, 5-(cis-2-aminocyclohexylamino)-3-(3,5-dimethoxyanilino)pyrazine-2-carboxamide]: the IC50 in the assay on release of serotonin is ≤ 100 nM. Besides, the “suppression of PCA reaction” value in the assay with PCA reaction is “excellently suppressed PCA reaction”.

As for `COc1cccc(Nc2nc(N[C@@H]3CCCC[C@@H]3N)cnc2C(N)=O)c1` (relative stereo) [Example 8, 5-(cis-2-aminocyclohexylamino)-3-(3-methoxyanilino)pyrazine-2-carboxamide], the IC50 in the assay with release of serotonin was ≤ 100 nM. For the same compound, the “suppression of PCA reaction” value with PCA reaction is given as “excellently suppressed PCA reaction”.

Take `Cc1cccc(Nc2nc(N[C@@H]3CCCC[C@@H]3N)cnc2C(N)=O)c1` (relative stereo) [Example 2, 5-(cis-2-aminohexylamino)-3-(3-methylanilino)pyrazine-2-carboxamide]: the “suppression of PCA reaction” value with PCA reaction was “excellently suppressed PCA reaction”.

Consider `CNC(=O)c1cnc(NCCN)nc1Nc1cccc(C(F)(F)F)c1` [2-(2-aminoethylamino)-N-methyl-4-(3-trifluoromethylanilino)pyrimidine-5-carboxamide], for which the “inhibitory activity against Syk at 1 μM” value on Syk is on record as “did not exhibit any inhibitory activity”.

Turning to `CSc1ccc(Nc2nc(N[C@@H]3CCCC[C@@H]3N)cnc2C(N)=O)cc1` (relative stereo) [Example 11, 5-(cis-2-aminocyclohexylamino)-3-(4-methylsulfanylanilino)pyrazine-2-carboxamide], in the assay with release of serotonin, the half-maximal inhibitory concentration (IC50) was ≤ 100 nM. The “suppression of PCA reaction” value in the assay with PCA reaction is reported as “excellently suppressed PCA reaction”.

In the case of `Cc1cccc(Nc2nc(N[C@@H]3CCCC[C@@H]3N)ccc2C(N)=O)c1.Cl` (relative stereo) [Example 1], in the assay on PCA reaction, the “suppression of PCA reaction” value is on record as “excellently suppressed PCA reaction”.

Usually IC50 stands for the midpoint of a concentration-inhibition curve.
